The Deep4Chem optical property database
“And” between values parts separate entries of the source, which are not always exact repeats. Equal values may be shown once. Each block holds one compound with its values, some of them ahead of it.

Assay: solvent given as SMILES

Structure (SMILES): CC1(C)c2ccccc2N(c2ccc(-c3ccc4c(c3)C(=O)c3ccc(-c5ccc(N6c7ccccc7C(C)(C)c7ccccc76)cc5)cc3C4=O)cc2)c2ccccc21
absorption maximum (in Cc1ccccc1): 446 nm

Structure (SMILES): C(C#Cc1ccc2ccc3cccc4ccc1c2c34)#Cc1cccc2ccccc12
absorption maximum (in C1CCCCC1): 409 nm
absorption maximum (in CC#N): 407 nm
absorption maximum (in CO): 406 nm
absorption maximum (in ClCCl): 412 nm

Structure (SMILES): CN(C)c1ccc(C#Cc2ccccc2)cc1
absorption maximum (in C1CCCCC1): 316.9 nm
absorption maximum (in C1CCOC1): 328.8 nm
absorption maximum (in C1COCCO1): 326.61 nm
absorption maximum (in CC1CCCO1): 327.1 nm
absorption maximum (in CC(C)=O): 329.4 nm
absorption maximum (in CC(C)CC(C)(C)C): 315 nm
absorption maximum (in CC(C)O): 321.4 nm
absorption maximum (in CCCCCCCCCCCCCCCC): 316.9 nm
absorption maximum (in CCCCCCCCCCCCCCCCCl): 330 nm
absorption maximum (in CO): 324 nm
absorption maximum (in Cc1ccccc1): 326.3 nm

Structure (SMILES): CC(C)CCC[C@@H](C)[C@H]1CC[C@H]2[C@@H]3CC=C4C[C@@H](OC(=O)Oc5cc(/C=C/C=C/c6ccc(N(C)C)cc6)ccc5[N+](=O)[O-])CC[C@]4(C)[C@H]3CC[C@]12C
absorption maximum (in CO): 448 nm

Structure (SMILES): O=c1cc2cc(O)c3cc(O)cc4ccc(o1)c2c43
absorption maximum (in CC1CCCO1): 476 nm

Structure (SMILES): N#C/C(=C(/C#N)c1ccc(-c2ccncc2)cc1)c1ccc(-c2ccncc2)cc1
absorption maximum (in ClCCl): 343 nm

Structure (SMILES): CCN(CC)c1ccc(C(=C(c2ccc(B(c3c(C)cc(C)cc3C)c3c(C)cc(C)cc3C)cc2)c2ccc(B(c3c(C)cc(C)cc3C)c3c(C)cc(C)cc3C)cc2)c2ccc(N(CC)CC)cc2)cc1
absorption maximum (in C1CCOC1): 431 nm

Structure (SMILES): c1ccc(-c2nc(-c3ccc(-c4cccs4)s3)[nH]c2-c2ccccc2)cc1
absorption maximum (in CC#N): 365 nm

Structure (SMILES): COc1ccc(-c2nc(-c3ccc(-c4nc(-c5ccc(OC)cc5)c(-c5ccc(OC)cc5)[nH]4)cc3)[nH]c2-c2ccc(OC)cc2)cc1
absorption maximum (in CC#N): 330 nm and 365 nm

Structure (SMILES): CC1=CC(C)=[N+]2C1=C(c1c3ccccc3cc3ccccc13)c1c(C)cc(C)n1[B-]2(F)F
absorption maximum (in CC#N): 502 nm
absorption maximum (in CCCCCC): 504 nm
absorption maximum (in CCO): 505 nm
absorption maximum (in CN(C)C=O): 505 nm
absorption maximum (in Cc1ccccc1): 508 nm
absorption maximum (in ClCCl): 506 nm

Structure (SMILES): CCOC(=O)c1c(-c2cc3cc4c(cc3oc2=O)OC(C)(C)CC4)nn(-c2ccccc2)c1C(=O)OCC
absorption maximum (in ClCCl): 348 nm

Structure (SMILES): Nc1cccc2cc3ccccc3cc12
absorption maximum (in C1CCCCC1): 384.17 nm

Structure (SMILES): CCN(CC)c1ccc2cc(-c3csc(NC(C)=O)c3C#N)c(=O)oc2c1
absorption maximum (in CO): 404 nm
absorption maximum (in CS(C)=O): 394 nm
absorption maximum (in Cc1ccccc1): 402 nm

Structure (SMILES): c1ccc(-c2nc3c(ccc4[nH]ccc43)o2)cc1
absorption maximum (in C1CCCCC1): 331 nm
absorption maximum (in C1COCCO1): 333 nm
absorption maximum (in CC#N): 320 nm
absorption maximum (in CO): 325 nm
absorption maximum (in Cc1ccccc1): 322 nm
absorption maximum (in O): 321 nm

Structure (SMILES): COC(=O)C(Cc1ccc2oc(-c3ccc4c(c3)c3ccccc3n4-c3ccccc3)nc2c1)NC(=O)OC(C)(C)C (stereo not given)
absorption maximum (in C1CCCCC1): 326 nm
absorption maximum (in C1CCOC1): 327.29 nm
absorption maximum (in C1COCCO1): 327.3 nm
absorption maximum (in CC1CCCO1): 326.9 nm
absorption maximum (in CC1COC(=O)O1): 326 nm
absorption maximum (in CC#N): 325.9 nm
absorption maximum (in CC(C)=O): 325.9 nm
absorption maximum (in CC(C)CC(C)(C)C): 325.1 nm
absorption maximum (in CC(C)CO): 335.8 nm
absorption maximum (in CC(C)O): 327 nm
absorption maximum (in CC(C)OC(C)C): 327.4 nm
absorption maximum (in CC(O)CO): 338 nm
absorption maximum (in CCC(C)CC): 324.4 nm
absorption maximum (in CCCCC): 324.5 nm
absorption maximum (in CCCCCC): 325.3 nm
absorption maximum (in CCCCCCCCC): 326 nm
absorption maximum (in CCCCCCCCCC): 326.2 nm
absorption maximum (in CCCCCCCO): 328.3 nm
absorption maximum (in CCCCCCO): 328.2 nm
absorption maximum (in CCCCCO): 327.3 nm
absorption maximum (in CCCCO): 327.4 nm
absorption maximum (in CCO): 334.69 nm
absorption maximum (in CCOC(C)=O): 325.6 nm
absorption maximum (in CCOCC): 325.3 nm
absorption maximum (in CN(C)C=O): 327.9 nm
absorption maximum (in CO): 334.2 nm
absorption maximum (in COCCOC): 326.8 nm
absorption maximum (in CS(C)=O): 332.6 nm
absorption maximum (in Cc1ccccc1): 328.9 nm
absorption maximum (in Cc1ccccc1C): 329.1 nm
absorption maximum (in ClC(Cl)Cl): 329.7 nm
absorption maximum (in ClCCl): 328.8 nm
absorption maximum (in NC=O): 327.7 nm
absorption maximum (in OC1CCCCC1): 328.6 nm
absorption maximum (in OCCO): 338.9 nm
absorption maximum (in c1ccccc1): 328.8 nm

Structure (SMILES): COc1ccc2c(C=C(C#N)C#N)cc3ccc4cc(C=C(C#N)C#N)c5ccc(OC)cc5c4c3c2c1
absorption maximum (in ClC(Cl)Cl): 456 nm

Structure (SMILES): CCCCOc1c(C=C2C=Cc3ccccc3N2C)c(=O)c1=O
absorption maximum (in CCO): 465 nm

Structure (SMILES): COc1cccc(-c2[nH]c(=O)n3c2-c2ccccc2C3=O)c1O
absorption maximum (in CC#N): 393 nm
absorption maximum (in CO): 395 nm
absorption maximum (in ClCCl): 396 nm

Structure (SMILES): COc1cnc(-c2cc[n+](C3=C(F)C(F)(F)C(F)(F)[C-]3F)cc2)s1
absorption maximum (in CC#N): 407 nm
absorption maximum (in CC(C)=O): 408 nm
absorption maximum (in CCO): 409 nm
absorption maximum (in CN(C)C=O): 410 nm
absorption maximum (in CO): 407 nm
absorption maximum (in CS(C)=O): 410 nm
absorption maximum (in ClC(Cl)Cl): 433 nm
absorption maximum (in ClCCl): 430 nm

The next lines start with the values.

absorption maximum (in CC#N): 310 nm
Structure (SMILES): CC(C)Oc1ccc(C#Cc2ccc3ccc(=O)oc3c2)cc1

absorption maximum (in ClCCl): 342 nm
Structure (SMILES): c1ccc(-n2c3ccccc3c3cc([Si](c4ccccc4)(c4ccccc4)c4ccc5c(c4)c4ccccc4n5-c4ccccc4)ccc32)cc1

absorption maximum (in ClC(Cl)Cl): 374 nm
Structure (SMILES): CCCCCCN1C(=O)c2cccc3c(-c4ccc(Cl)s4)ccc(c23)C1=O

absorption maximum (in ClCCl): 355 nm
Structure (SMILES): COc1cc(OC)cc(C2=CC(c3ccccc3)=C(c3ccccc3)C2)c1

absorption maximum (in CC#N): 293 nm
absorption maximum (in ClCCl): 293 nm
Structure (SMILES): CCOC(=O)c1ccc2nc(N)sc2c1

absorption maximum (in ClCCl): 309 nm
Structure (SMILES): Clc1ccc(N2c3c(sc4ccccc34)Sc3sc4ccccc4c32)cc1

absorption maximum (in CC#N): 379 nm
absorption maximum (in CO): 378 nm
absorption maximum (in ClCCl): 385 nm
Structure (SMILES): CCCCCCN(CCCCCC)c1ccc(C#Cc2ccc(C#N)cc2)cc1

absorption maximum (in CO): 278 nm
Structure (SMILES): Cc1ccc2nnn(-c3c(C#N)c4c(N)ncnc4n3[C@H]3C[C@H](O)[C@@H](CO)O3)c2c1

absorption maximum (in ClCCl): 339 nm
Structure (SMILES): c1ccc2c(c1)-c1cc(-n3c4ccccc4c4ccccc43)ccc1C21c2ccccc2-n2c3ccccc3c3cccc1c32 (stereo not given)

absorption maximum (in CO): 658 nm
absorption maximum (in ClC(Cl)Cl): 677 nm
absorption maximum (in ClCCl): 678 nm
Structure (SMILES): CC[n+]1c(C=C2C(=O)C(C=C3Sc4cc(Cl)ccc4N3C)=C2[O-])[se]c2ccccc21

absorption maximum (in CC#N): 336 nm
absorption maximum (in CCCCOCCCC): 336 nm
absorption maximum (in CO): 334 nm
Structure (SMILES): COc1nc(Nc2cc3ccc4cccc5ccc(c2)c3c45)nc(OC)n1

absorption maximum (in O): 295 nm
Structure (SMILES): COc1cc(/C=C/CO)ccc1O

absorption maximum (in C1CCCCC1): 316 nm
absorption maximum (in C1CCOC1): 319 nm
absorption maximum (in CC#N): 320 nm
absorption maximum (in CCO): 322 nm
absorption maximum (in CO): 320 nm
absorption maximum (in ClC(Cl)Cl): 325 nm
Structure (SMILES): CCCCCCOc1ccc(-c2cnc(-c3nnc(-c4ccc(OCCCCCC)cc4)o3)o2)cc1

absorption maximum (in CC#N): 326 nm
absorption maximum (in ClCCl): 343 nm
Structure (SMILES): Cc1cc(-c2ccccc2)cc(C)[o+]1

absorption maximum (in CCO): 375 nm
Structure (SMILES): Cc1c(C)n2c(COC(=O)c3ccc(F)cc3)c(C)c(=O)n2c1=O

absorption maximum (in ClCCl): 306.5 nm
Structure (SMILES): C#Cn1c(-c2cc(-c3nc4ccc(C)cc4n3C#C)cc(-c3nc4ccc(C)cc4n3C#C)c2)nc2ccc(C)cc21

absorption maximum (in ClCCl): 443 nm
Structure (SMILES): COc1ccc2c(c1)CCC1=C(C#Cc3ccccc3)O[B-](F)(F)[O+]=C12

absorption maximum (in CCO): 422 nm
absorption maximum (in ClCCl): 428 nm
Structure (SMILES): CCN(CC)c1ccc2cc(C#N)/c(=N\C(=O)C(C)C)oc2c1
